Values belong to the compound of their own block, whether it stands above or below them. Active and inactive are the calls of the source.
Key:
[1] = target: T1, Serine/threonine-protein phosphatase (Candida dubliniensis (strain CD36 / CBS 7987 / NCPF 3949 / NRRLY-17841) (Yeast), UniProt B9W6M3); experiment: calcineurin pathway inhibitors in yeast reporter, dose response, S. cerevisiae, CDRE-lacZ, luminescence, secondary (AID 2388); type: functional, cell-based;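 further: yeast reporter cells carrying a calcineurin-responsive lacZ construct stimulated with calcium chloride; luminescent beta-galactosidase reporter signal in whole cells rather than isolated phosphatase activity; potency for inhibition where a drop in reporter signal means calcineurin blockade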
T1 sequence (B9W6M3 whole entry): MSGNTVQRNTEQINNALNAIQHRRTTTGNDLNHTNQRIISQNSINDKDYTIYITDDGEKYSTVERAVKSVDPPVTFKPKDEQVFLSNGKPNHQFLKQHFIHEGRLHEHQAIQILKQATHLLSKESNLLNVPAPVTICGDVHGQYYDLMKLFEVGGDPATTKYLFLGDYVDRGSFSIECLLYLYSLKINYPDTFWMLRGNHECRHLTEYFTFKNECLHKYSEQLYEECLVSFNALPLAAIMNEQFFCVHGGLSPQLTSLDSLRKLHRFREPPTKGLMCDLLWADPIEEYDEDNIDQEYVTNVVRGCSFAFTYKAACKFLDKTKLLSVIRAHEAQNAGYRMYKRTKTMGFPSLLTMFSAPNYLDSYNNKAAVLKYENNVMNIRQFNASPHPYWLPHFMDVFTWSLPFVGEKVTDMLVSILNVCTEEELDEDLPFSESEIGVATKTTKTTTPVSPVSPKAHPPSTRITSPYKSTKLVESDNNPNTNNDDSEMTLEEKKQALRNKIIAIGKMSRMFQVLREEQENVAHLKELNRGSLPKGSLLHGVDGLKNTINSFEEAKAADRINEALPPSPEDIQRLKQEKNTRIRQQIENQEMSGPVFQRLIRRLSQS

[2] = target: Cyclin-dependent kinase 1 (Homo sapiens, UniProt P06493); type: functional;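 further: Kinome-wide panel profiling, with the target listed as panel member CDC2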
[3] = target: Tyrosine-protein kinase Lyn (Homo sapiens, UniProt P07948); type: functional;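 further: lyn as one member of a kinase panel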
[4] = target: Cyclin-dependent kinase 8 (Homo sapiens, UniProt P49336); experiment: Navigating the Kinome. Panel member name: CDK8; type: functional
[5] = target: Serine/threonine-protein kinase TAO1 (Homo sapiens, UniProt Q7L7X3); type: functional
[6] = target: Hepatocyte growth factor receptor (Homo sapiens, UniProt P08581); type: functional;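 further: kinase panel profiling across the kinome, with MET as the panel member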
[7] = target: Tyrosine-protein kinase receptor TYRO3 (Homo sapiens, UniProt Q06418); type: functional;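 further: TYRO3 value obtained as one member of a kinome-wide profiling panel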
[8] = target: RAC-gamma serine/threonine-protein kinase (Homo sapiens, UniProt Q9Y243); type: functional
[9] = target: Tyrosine-protein kinase SYK (Homo sapiens, UniProt P43405); type: functional
[10] = target: Serine/threonine-protein kinase BRSK1 (Homo sapiens, UniProt Q8TDC3); type: functional;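 further: measured within a kinome-wide kinase panel, with the target listed as KIAA1811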
[11] = target: Lymphokine-activated killer T-cell-originated protein kinase (Homo sapiens, UniProt Q96KB5); type: functional;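 further: value comes from a kinase panel screen in which TOPK was one of the panel members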
[12] = target: Dual specificity protein kinase CLK4 (Homo sapiens, UniProt Q9HAZ1); type: functional
[13] = target: Testis-specific serine/threonine-protein kinase 2 (Homo sapiens, UniProt Q96PF2); type: functional;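 further: part of the Navigating the Kinome panel, target entry STK22B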
[14] = target: Fibroblast growth factor receptor 1 (Homo sapiens, UniProt P11362); type: functional
[15] = target: Serine/threonine-protein kinase PAK 1 (Homo sapiens, UniProt Q13153); type: functional
[16] = target: Proto-oncogene tyrosine-protein kinase Src (Homo sapiens, UniProt P12931); type: functional;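 further: SRC entry within a kinome-wide kinase profiling panel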
[17] = target: cAMP-dependent protein kinase catalytic subunit alpha (Homo sapiens, UniProt P17612); type: functional
[18] = target: Calcium/calmodulin-dependent protein kinase type II subunit alpha (Homo sapiens, UniProt Q9UQM7); experiment: Navigating the Kinome. Panel member name: CAMK2A; type: functional
[19] = target: Cyclin-dependent kinase 19 (Homo sapiens, UniProt Q9BWU1); experiment: Navigating the Kinome. Panel member name: CDC2L6; type: functional
[20] = target: Serine/threonine-protein kinase Nek4 (Homo sapiens, UniProt P51957); type: functional
[21] = target: BDNF/NT-3 growth factors receptor (Homo sapiens, UniProt Q16620); type: functional;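 further: NTRK2 measured as one member of a broad kinome-wide kinase profiling panel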
[22] = target: Dual specificity tyrosine-phosphorylation-regulated kinase 1B (Homo sapiens, UniProt Q9Y463); experiment: Navigating the Kinome. Panel member name: DYRK1B; type: functional
[23] = target: LIM domain kinase 1 (Homo sapiens, UniProt P53667); experiment: Navigating the Kinome. Panel member name: LIMK1; type: functional
[24] = target: MAP/microtubule affinity-regulating kinase 3 (Homo sapiens, UniProt P27448); type: functional;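 further: MARK3 affinity measured as one member of a kinome panel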
[25] = target: Macrophage colony-stimulating factor 1 receptor (Homo sapiens, UniProt P07333); type: functional;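 further: value comes from the Navigating the Kinome screening panel, CSF1R member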
[26] = target: Serine/threonine-protein kinase Chk2 (Homo sapiens, UniProt O96017); type: functional;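 further: CHEK2 entry within a kinome-wide screening panel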
[27] = target: Serine/threonine-protein kinase pim-3 (Homo sapiens, UniProt Q86V86); type: functional;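 further: value obtained as one member of a broad kinase panel profiling effort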
[28] = target: Platelet-derived growth factor receptor beta (Homo sapiens, UniProt P09619); type: functional;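 further: value comes from a kinome panel, with PDGFRB tested as one panel member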
[29] = target: Vascular endothelial growth factor receptor 1 (Homo sapiens, UniProt P17948); type: functional;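 further: measured within a kinome-wide profiling panel, FLT1 as the panel member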
[30] = target: Mitogen-activated protein kinase 12 (Homo sapiens, UniProt P53778); type: functional;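 further: measured as one member of a kinome-wide kinase profiling panel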
[31] = target: Calcium/calmodulin-dependent protein kinase type II subunit delta (Homo sapiens, UniProt Q13557); type: functional
[32] = target: Insulin-like growth factor 1 receptor (Homo sapiens, UniProt P08069); experiment: Navigating the Kinome. Panel member name: IGF1R; type: functional
[33] = target: Protein-tyrosine kinase 6 (Homo sapiens, UniProt Q13882); type: functional

Chain of Insulin-like growth factor 1 receptor (P08069 31-736 limits assumed): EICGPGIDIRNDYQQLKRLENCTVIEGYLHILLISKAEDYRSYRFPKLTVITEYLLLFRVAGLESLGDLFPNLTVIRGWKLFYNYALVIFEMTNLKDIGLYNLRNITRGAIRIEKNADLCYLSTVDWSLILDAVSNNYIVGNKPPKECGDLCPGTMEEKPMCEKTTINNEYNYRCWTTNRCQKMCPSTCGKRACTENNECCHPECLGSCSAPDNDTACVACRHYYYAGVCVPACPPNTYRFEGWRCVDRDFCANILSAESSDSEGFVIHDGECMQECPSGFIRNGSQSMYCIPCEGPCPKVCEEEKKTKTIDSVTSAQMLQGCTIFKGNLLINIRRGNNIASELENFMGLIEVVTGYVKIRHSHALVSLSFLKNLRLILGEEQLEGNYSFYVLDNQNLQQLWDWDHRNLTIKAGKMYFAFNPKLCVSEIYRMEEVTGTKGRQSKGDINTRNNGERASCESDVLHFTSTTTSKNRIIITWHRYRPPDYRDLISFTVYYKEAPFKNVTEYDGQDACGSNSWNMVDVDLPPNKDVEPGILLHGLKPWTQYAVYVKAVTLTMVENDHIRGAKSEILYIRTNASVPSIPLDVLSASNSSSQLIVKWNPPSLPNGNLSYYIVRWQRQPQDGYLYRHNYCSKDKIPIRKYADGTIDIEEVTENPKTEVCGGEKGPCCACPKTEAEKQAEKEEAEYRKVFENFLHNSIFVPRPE
Chain of Insulin-like growth factor 1 receptor (P08069 741-1367 limits assumed): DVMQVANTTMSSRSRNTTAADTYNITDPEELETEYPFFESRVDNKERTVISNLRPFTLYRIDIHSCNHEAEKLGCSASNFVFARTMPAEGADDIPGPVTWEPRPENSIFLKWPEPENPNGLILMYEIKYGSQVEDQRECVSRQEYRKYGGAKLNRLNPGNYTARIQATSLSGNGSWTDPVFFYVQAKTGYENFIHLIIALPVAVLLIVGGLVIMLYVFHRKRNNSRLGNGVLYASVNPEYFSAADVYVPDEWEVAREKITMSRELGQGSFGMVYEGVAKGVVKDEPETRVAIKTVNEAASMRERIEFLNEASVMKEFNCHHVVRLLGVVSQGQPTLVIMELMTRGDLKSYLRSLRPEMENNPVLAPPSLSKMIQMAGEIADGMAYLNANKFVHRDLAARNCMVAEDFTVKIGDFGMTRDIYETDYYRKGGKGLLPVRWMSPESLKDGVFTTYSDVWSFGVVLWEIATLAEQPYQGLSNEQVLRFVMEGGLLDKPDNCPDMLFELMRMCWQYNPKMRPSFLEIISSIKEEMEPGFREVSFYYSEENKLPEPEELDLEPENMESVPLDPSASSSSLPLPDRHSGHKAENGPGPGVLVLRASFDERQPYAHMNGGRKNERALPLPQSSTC
Chain of MAP/microtubule affinity-regulating kinase 3 (P27448 whole entry): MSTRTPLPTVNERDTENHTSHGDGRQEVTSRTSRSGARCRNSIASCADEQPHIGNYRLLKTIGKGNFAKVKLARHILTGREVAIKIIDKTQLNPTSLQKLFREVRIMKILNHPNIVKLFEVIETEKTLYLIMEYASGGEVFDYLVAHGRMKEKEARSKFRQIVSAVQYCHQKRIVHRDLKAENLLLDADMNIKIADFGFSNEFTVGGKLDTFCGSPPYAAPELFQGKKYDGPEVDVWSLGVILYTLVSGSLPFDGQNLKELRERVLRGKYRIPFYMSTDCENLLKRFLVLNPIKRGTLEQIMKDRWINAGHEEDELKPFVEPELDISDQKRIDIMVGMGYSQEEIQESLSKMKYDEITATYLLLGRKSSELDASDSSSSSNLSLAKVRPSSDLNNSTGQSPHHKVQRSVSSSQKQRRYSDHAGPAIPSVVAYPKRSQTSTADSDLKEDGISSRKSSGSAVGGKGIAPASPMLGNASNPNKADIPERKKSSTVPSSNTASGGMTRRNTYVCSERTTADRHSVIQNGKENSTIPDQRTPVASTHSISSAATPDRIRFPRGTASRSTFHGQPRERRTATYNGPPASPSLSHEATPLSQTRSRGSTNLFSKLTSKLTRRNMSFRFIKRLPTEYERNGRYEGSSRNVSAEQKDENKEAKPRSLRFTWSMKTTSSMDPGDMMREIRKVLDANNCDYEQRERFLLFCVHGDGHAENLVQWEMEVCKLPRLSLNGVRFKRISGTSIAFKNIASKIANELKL
Chain of Testis-specific serine/threonine-protein kinase 2 (Q96PF2 whole entry): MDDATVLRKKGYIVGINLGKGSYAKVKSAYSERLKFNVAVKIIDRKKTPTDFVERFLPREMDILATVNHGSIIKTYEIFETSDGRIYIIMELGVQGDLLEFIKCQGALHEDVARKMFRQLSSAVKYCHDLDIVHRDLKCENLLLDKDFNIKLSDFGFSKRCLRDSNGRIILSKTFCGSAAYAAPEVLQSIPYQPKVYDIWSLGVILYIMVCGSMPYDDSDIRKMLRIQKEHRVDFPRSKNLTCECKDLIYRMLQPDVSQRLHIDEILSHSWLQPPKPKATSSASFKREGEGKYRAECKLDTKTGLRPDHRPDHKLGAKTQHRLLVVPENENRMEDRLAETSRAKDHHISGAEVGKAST
Chain of Cyclin-dependent kinase 19 (Q9BWU1 whole entry): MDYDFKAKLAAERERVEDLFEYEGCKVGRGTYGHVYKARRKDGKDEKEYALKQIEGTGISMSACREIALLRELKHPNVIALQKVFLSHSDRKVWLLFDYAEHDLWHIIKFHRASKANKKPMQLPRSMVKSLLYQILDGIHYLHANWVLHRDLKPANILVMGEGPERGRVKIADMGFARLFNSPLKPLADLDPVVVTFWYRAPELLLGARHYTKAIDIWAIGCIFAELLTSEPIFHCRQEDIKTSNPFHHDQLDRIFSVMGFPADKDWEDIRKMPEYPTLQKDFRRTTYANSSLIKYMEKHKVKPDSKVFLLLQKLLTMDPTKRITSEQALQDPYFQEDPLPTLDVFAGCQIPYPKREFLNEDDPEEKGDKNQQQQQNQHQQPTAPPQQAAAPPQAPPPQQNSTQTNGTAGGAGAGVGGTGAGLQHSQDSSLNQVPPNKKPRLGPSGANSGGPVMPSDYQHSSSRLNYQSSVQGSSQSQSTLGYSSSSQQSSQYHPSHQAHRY
Chain of Platelet-derived growth factor receptor beta (P09619 whole entry): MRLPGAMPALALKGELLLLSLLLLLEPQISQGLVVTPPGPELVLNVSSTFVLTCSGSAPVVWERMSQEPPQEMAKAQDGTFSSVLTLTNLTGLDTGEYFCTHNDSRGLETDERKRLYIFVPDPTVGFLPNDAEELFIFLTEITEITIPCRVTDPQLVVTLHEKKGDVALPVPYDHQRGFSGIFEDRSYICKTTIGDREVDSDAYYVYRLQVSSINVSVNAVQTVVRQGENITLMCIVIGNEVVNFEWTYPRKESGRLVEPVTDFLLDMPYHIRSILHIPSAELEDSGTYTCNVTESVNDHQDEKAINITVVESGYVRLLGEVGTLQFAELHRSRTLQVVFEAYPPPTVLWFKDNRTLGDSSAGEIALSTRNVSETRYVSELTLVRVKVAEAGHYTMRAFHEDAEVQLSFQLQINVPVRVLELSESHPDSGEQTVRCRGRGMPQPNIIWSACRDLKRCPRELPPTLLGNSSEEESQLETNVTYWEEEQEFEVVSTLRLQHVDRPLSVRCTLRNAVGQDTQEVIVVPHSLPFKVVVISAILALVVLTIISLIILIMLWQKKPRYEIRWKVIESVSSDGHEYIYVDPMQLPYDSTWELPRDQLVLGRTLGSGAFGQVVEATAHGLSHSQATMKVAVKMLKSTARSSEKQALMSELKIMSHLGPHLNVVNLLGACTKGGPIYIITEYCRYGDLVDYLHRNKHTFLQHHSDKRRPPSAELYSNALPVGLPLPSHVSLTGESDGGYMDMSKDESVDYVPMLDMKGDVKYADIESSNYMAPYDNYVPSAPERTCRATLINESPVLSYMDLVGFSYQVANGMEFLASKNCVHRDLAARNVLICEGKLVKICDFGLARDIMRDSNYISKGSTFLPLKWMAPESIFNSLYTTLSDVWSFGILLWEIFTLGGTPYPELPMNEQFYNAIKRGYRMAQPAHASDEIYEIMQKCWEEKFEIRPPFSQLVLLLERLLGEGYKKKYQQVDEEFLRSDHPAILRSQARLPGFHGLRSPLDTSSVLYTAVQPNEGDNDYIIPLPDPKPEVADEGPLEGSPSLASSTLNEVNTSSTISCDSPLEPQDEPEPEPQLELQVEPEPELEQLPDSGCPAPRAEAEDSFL
Chain of Cyclin-dependent kinase 1 (P06493 whole entry): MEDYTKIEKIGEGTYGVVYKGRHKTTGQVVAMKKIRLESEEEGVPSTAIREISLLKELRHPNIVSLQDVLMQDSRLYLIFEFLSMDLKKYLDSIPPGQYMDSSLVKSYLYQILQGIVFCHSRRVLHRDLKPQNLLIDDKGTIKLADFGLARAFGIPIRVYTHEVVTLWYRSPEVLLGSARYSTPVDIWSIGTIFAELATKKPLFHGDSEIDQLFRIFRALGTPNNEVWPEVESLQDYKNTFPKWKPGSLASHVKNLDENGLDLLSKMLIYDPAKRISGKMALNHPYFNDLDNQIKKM
Chain of Lymphokine-activated killer T-cell-originated protein kinase (Q96KB5 whole entry): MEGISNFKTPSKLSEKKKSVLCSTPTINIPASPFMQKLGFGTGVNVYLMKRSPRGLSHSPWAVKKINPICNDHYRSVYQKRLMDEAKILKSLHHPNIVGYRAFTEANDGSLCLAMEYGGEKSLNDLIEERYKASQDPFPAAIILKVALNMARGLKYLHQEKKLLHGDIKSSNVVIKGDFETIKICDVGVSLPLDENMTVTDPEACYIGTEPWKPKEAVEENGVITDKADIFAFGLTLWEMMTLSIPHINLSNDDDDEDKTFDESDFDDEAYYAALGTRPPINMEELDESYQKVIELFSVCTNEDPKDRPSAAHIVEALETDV

SMILES: CCCn1nc([N+](=O)[O-])c(C(C#N)c2nc3ccccc3s2)c(Cl)c1=O (stereo not drawn)
EC50 [1]: > 180 µM (inactive)

Ki [2]: 0.0316 µM (active)
Ki [3]: > 1.58 µM (inactive)
Ki [4]: > 3.98 µM (inactive)
Ki [5]: > 5.01 µM (inactive)
Ki [6]: > 2 µM (inactive)
Ki [7]: > 2.51 µM (inactive)
Ki [8]: 0.251 µM (active)
Ki [9]: 0.1 µM (active)
Ki [10]: 0.0794 µM (active)
Ki [12]: 0.0316 µM (active)
Ki [13]: 1.58 µM (active)
Ki [14]: > 3.98 µM (inactive)
Ki [15]: 0.0631 µM (active)
Ki [16]: > 2 µM (inactive)
Ki [17]: 0.0398 µM (active)
Ki [18]: > 5.01 µM (inactive)
Ki [19]: 0.398 µM (active)
Ki [20]: 0.2 µM (active)
Ki [21]: > 3.98 µM (inactive)
Ki [22]: 0.631 µM (active)
Ki [23]: 1.26 µM (active)
Ki [24]: 0.0631 µM (active)
Ki [25]: > 2.51 µM (inactive)
Ki [26]: 0.02 µM (active)
Ki [27]: 0.0316 µM (active)
Ki [28]: > 2 µM (inactive)
Ki [29]: > 2.51 µM (inactive)
Ki [30]: 1.26 µM (active)
Ki [31]: 0.158 µM (active)
Ki [32]: > 2 µM (inactive)
Ki [33]: > 2.51 µM (inactive)
SMILES: NCCCn1cc(-c2cc(-c3cc4ccccc4s3)c3[nH]ncc3c2)c2nc(N)ncc21
Ki [11]: 2.51 µM (active)

— ChEMBL document CHEMBL1201862, “PubChem BioAssay data set” (2004)
